Data from PubChem BioAssay (NCI).
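Growth conditions: 96-well plates. Treatment: test compound, 48 hours, 5 concentrations. Analysis: linear interpolation between bracketing concentrations; unreached endpoints set to highest concentration. GI50 is the concentration that inhibits growth by half. TGI marks complete inhibition of growth.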

Tests used:
Assay in all cases: inhibition of tumour cell growth, NCI panel, 48 h
[1] = tested on: SK-OV-3 ovarian
[2] = tested on: K-562 leukemia
[3] = tested on: HCT-15 colon
[4] = tested on: OVCAR-8 ovarian
[5] = tested on: SK-MEL-2 melanoma
[6] = tested on: NCI-H226 lung
[7] = tested on: SN12C renal
[8] = tested on: CCRF-CEM leukemia
[9] = tested on: NCI-H522 lung
[10] = tested on: ACHN renal

SMILES	TGI [1] [µM]	TGI [2] [µM]	TGI [3] [µM]	TGI [4] [µM]	TGI [5] [µM]	TGI [6] [µM]	TGI [7] [µM]	TGI [8] [µM]	TGI [9] [µM]	TGI [10] [µM]	GI50 [2] [µM]	GI50 [3] [µM]	GI50 [8] [µM]	GI50 [10] [µM]	GI50 [4] [µM]	GI50 [5] [µM]	GI50 [6] [µM]	GI50 [7] [µM]	GI50 [9] [µM]	GI50 [1] [µM]
Nc1cccc2cc(S(=O)(=O)Nc3ccc(C(=O)O)cc3)ccc12	> 100	> 100	> 100	> 100	> 100	> 100	> 100	> 100	> 100	> 100	–	–	–	–	–	–	–	–	–	–
CC[n+]1c(/C=C/c2ccc(N(CCCl)CCCl)cc2)ccc2cc(Br)ccc21	9.09	–	–	10.4	1.28	7.48	10.6	–	4.66	–	125	2520	304	1060	–	–	–	–	–	–
CCN(CC)CCSc1nc2c([N+](=O)[O-])cccc2[nH]1	> 100	> 100	> 100	> 100	–	> 100	> 100	> 100	> 100	–	–	–	–	–	–	–	–	–	–	–
CNC1=C(C)C(=O)C2=C(C1=O)C(COC(N)=O)C1(OC)C3NC3CN21 (stereo not given)	36.5	> 100	3.52	11	4.27	4.66	–	> 100	2.22	–	–	–	–	–	–	–	–	–	–	–
N=C1SCCS1	> 100	> 100	> 100	> 100	> 100	> 100	> 100	> 100	> 100	> 100	–	–	–	–	–	–	–	–	–	–
O=C(Nc1ccc(-n2cc(-c3ccncc3)c(-c3ccc(O)c(Cl)c3)n2)cc1)c1ccc(Cl)c(Cl)c1	–	> 32.5	> 32.5	> 32.5	7.41	> 32.5	> 32.5	> 32.5	> 32.5	> 32.5	0.966	0.708	1.01	1.34	1.74	0.932	> 32.5	2.95	0.801	–
NC(N)=NCCCS(=O)(=O)Nc1ccc(Nc2c3ccccc3nc3cc([N+](=O)[O-])ccc23)cc1	55.5	> 89.7	> 100	> 92.9	66.1	45.5	60.9	> 74.9	61	63	–	–	–	–	–	–	–	–	–	–
Cc1ccc(CCCC(=O)O)cc1C	–	> 100	> 100	> 100	> 100	> 100	> 100	> 100	> 100	> 100	–	–	–	–	–	–	–	–	–	–
N=C(N)c1ccc(-c2ccc(-c3ccccc3)o2)cc1	10.2	4.99	3.24	–	3.98	27.7	7.61	5.03	–	3.26	2.22	1.64	2.13	1.67	–	2.14	7.93	2.72	–	2.89
O=C(c1no[n+]([O-])c1C(=O)c1csc2ccccc12)c1csc2ccccc12	33	3.73	21.7	11.4	20.7	35	12.1	0.267	0.843	16	–	–	–	–	–	–	–	–	–	–
CC(C)c1cccc(C(C)C)c1NC(=S)Nc1ccccc1	> 100	> 100	> 100	> 100	> 100	> 100	> 100	> 100	–	> 100	–	–	–	–	–	–	–	–	–	–
N/C(=N/O)c1cn(C2OC(CO)C(O)C2O)c2ncnc(NO)c12 (stereo not given)	–	> 100	> 100	> 100	0.176	17.4	> 100	–	0.392	4.72	–	–	–	–	–	–	–	–	–	–
CSc1nc(NC2OC(CO)C(O)C(O)C2O)c(N)c(=O)n1C (stereo not given)	> 100	> 100	> 100	> 100	> 100	> 100	> 100	> 100	> 100	–	–	–	–	–	–	–	–	–	–	–
COc1cccc(/C=N/[N-]C(N)=O)c1[O-].[OH3+].[Zn+2]	> 100	> 100	> 100	> 100	> 100	> 100	> 100	> 100	> 100	> 100	–	–	–	–	–	–	–	–	–	–
NC(=O)OCc1c(O)c2c(c(O)c1COC(N)=O)C(=O)C=CC2=O	> 100	> 100	> 100	> 100	> 100	> 100	> 100	> 100	> 100	> 100	–	–	–	–	–	–	–	–	–	–
CCCCCCCCCCCCCCCc1ccc(C(=O)C[n+]2ccccc2)cc1	3.34	–	2.56	2.55	–	> 100	2.13	–	–	2.22	–	1.03	–	1.01	1.22	–	4.15	0.756	–	1.71
COc1ccc(C2C(Cl)C(=O)N2NC(=O)c2ccc(NC(C)=O)cc2)cc1OC (stereo not given)	> 100	> 100	–	> 100	> 100	> 100	–	> 100	> 100	> 100	–	–	–	–	–	–	–	–	–	–
CC(C)=CCC/C(C)=C/CC/C(C)=C/C(O)c1ccccc1 (stereo not given)	36.5	> 100	32.8	40.6	34.9	46.2	33.9	52.4	> 10	31.2	–	–	–	–	–	–	–	–	–	–
